Reference: paper PMC6476928 (Frontiers in Pharmacology, 2019)
Where a chain is given by its changes, count along the chain named.

How the values were obtained:
[1] = tested on: Ito1 current of NRVMs; test: Whole-cell patch clamp of Ito1 current in neonatal rat ventricular myocytes; assay type: cell-based; details: 100 nM JZTX-V, at 30 mV, holding potential −40 mV, N = 4, mean ± SEM
Description: Neonatal rat ventricular myocytes cells were obtained from ventricles of neonatal Sprague–Dawley rats as previously reported ([Sung et al., 2012]; [Yan et al., 2018]). SD rats (Hunan SJA Laboratory Animal Co., Ltd., Changsha, China) were used according to the guidelines of the National Institutes of Health for Care and Use of Laboratory Animals. The experiments were approved by the Animal Care and Use Committee of Hunan Normal University.
Ito currents, The Ca^2+-currents blocker CdCl2 (200-μmol/L) were used in external solutions. To generate Ito1 current, cells were held at −40 mV to inactivate the fast Na^+ current and then stepped to potentials of −40 mV to +60 mV in 10-mV increments.
(§1) All data points are shown as mean SEM.

[2] = target: T1, Kv4.2 V285A (Homo sapiens, UniProt Q9NZV8, V285A); test: Patch clamp of Kv4.2 mutant V285A in HEK293T cells; assay type: cell-based
T1 construct: expressed in transfected cells; host or cells: HEK293T
T1 sequence (Q9NZV8 1-630 V285A): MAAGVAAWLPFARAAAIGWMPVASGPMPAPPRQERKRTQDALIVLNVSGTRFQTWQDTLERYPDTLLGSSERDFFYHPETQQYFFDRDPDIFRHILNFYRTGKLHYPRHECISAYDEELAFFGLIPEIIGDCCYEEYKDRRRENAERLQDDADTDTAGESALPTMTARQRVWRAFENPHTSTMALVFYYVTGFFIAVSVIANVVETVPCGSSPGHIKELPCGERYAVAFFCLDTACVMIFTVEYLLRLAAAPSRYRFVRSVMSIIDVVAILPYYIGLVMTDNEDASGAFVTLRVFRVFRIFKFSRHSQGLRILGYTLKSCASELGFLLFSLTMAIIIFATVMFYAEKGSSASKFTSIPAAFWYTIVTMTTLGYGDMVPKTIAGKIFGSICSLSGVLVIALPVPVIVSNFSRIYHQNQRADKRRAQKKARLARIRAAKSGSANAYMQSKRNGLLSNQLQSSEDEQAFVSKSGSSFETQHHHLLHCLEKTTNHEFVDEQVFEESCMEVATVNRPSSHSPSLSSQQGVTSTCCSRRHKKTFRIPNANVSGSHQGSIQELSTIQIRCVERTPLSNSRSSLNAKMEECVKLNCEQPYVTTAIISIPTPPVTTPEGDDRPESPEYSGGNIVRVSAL
T1 sequence (Q9NS61 1-270 partner): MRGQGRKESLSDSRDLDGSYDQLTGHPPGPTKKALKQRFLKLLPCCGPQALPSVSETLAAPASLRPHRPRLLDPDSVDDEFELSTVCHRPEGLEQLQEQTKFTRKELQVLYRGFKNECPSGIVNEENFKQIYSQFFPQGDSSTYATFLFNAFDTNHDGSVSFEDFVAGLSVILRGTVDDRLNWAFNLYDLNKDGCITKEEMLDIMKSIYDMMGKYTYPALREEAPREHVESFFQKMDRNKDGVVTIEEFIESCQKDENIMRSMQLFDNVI
Description: (§2) Human embryonic kidney cell line (HEK293T) was obtained from Shanghai Institute of Cell Biology, Chinese Academy of Sciences (Shanghai, China) and maintained with 5% CO2 at 37°C in DMEM supplemented with 10% heat-inactivated fetal calf and serum (FBS), penicillin (100 U/ml), and streptomycin (100 μg/ml). The WT/mutant Kv4.2 plasmids were transiently transfected into HEK293T by Lipofectamine^TM 2000 Reagent (Invitrogen), and the KChIP2 subunits were co-transfected with Kv4.2.
(§3) The extracellular buffer and pipette solution for AP, Ito, and Kv4.2 were used as follows.
(§4) Kv4.2 current, The pipette solution contained (mM) 140 KF, 5 ATP-2Na, 1 EGTA, and 10 HEPEs (pH = 7.4). […] The steady-state activation of Kv4.2 was measured with the holding potential −80 mV and applied from −80 mV to 70 mV (10-mV increments). Steady-state inactivation of Kv4.2 channel measured with a series of a 300-ms depolarizing test potential of 10 mV followed a 1000-ms prepulse at potentials ranging from −120 to +70 mV with a 5-mV increment.
(§5) Data were analyzed using the clampfit (Axon) and Origin 9 software programs. […] The steady-state activation relationship was measured using Boltzmann function (f(V) = 1/{1 + exp[−(V−V1/2)/k]}^4). Steady-state inactivation was measured using the Boltzmann function f(V) = 1/{1 + exp[−(V − V1/2)/k]}.

[3] = target: T2, Kv4.2 F289A (Homo sapiens, UniProt Q9NZV8, F289A); test: Patch clamp of Kv4.2 mutant F289A in HEK293T cells; assay type: cell-based
T2 construct: expressed in transfected cells; host or cells: HEK293T
T2 sequence (Q9NZV8 1-630 F289A): T1 sequence (Q9NZV8 1-630 V285A) with A285V, F289A
T2 sequence (Q9NS61 1-270 partner): T1 sequence (Q9NS61 1-270 partner)
Description: as §2, §3, §4, §5

[4] = tested on: Kv4.2 I275A; test: Patch clamp of Kv4.2 mutant I275A in HEK293T cells; assay type: cell-based
Description: as §1

[5] = tested on: Kv4.2 L277A; test: Patch clamp of Kv4.2 mutant L277A in HEK293T cells; assay type: cell-based
Description: as §1

[6] = tested on: A-type potassium channels in DRG cells; details: ref Zeng et al., 2008; read-out: IC50, block of A-type potassium channels in DRG cells; cited from earlier work
[7] = tested on: kv4.1; details: 5µM, X. laevis oocytes; cited from earlier work
Description: Supplement Data_Sheet_1.docx, table 1: Supplementary Table 1.Activity of spider toxins on Kv2 and Kv4 channel subtypes Activities of spider toxins against different subtypes of Kv2 and Kv4 potassium channels are reported as IC50 (nanomolar) or as percentage of current inhibition at a single dose (nanomolar). Affinity (IC50) measurements | column: kv4.1

Compound: CC[C@H](C)[C@H](NC(=O)[C@@H](NC(=O)[C@H](CCCCN)NC(=O)[C@H](CCCNC(=N)N)NC(=O)[C@@H]1CSSC[C@@H]2NC(=O)[C@H](C)NC(=O)[C@H](CCCNC(=N)N)NC(=O)[C@H](CCCCN)NC(=O)[C@H](CO)NC(=O)[C@H](CC(=O)O)NC(=O)[C@@H]3CSSC[C@H](NC(=O)[C@H](CCCNC(=N)N)NC(=O)[C@H](CC(C)C)NC(=O)CNC(=O)[C@H](CCC(=O)O)NC(=O)[C@H](CSSC[C@H](NC(=O)[C@@H](N)Cc4ccc(O)cc4)C(=O)N[C@@H](CCC(N)=O)C(=O)N[C@@H](CCCCN)C(=O)N[C@@H](Cc4c[nH]c5ccccc45)C(=O)N[C@@H](CCSC)C(=O)N[C@@H](Cc4c[nH]c5ccccc45)C(=O)N[C@@H]([C@@H](C)O)C(=O)N3)NC2=O)C(=O)N[C@@H](CCCCN)C(=O)N[C@@H](CC(C)C)C(=O)N[C@@H](Cc2c[nH]c3ccccc23)C(=O)N1)[C@@H](C)CC)C(=O)O [JZTX-V, Jingzhaotoxin-V]
- inhibition of Ito1 current of NRVMs [1]: 78 ± 4.32%
- reduction of sensitivity to the toxin vs WT Kv4.2 [2]: ~7 fold
- reduction of sensitivity to the toxin vs WT Kv4.2 [3]: ~11 fold
- increase of affinity for JZTX-V vs WT Kv4.2 [4]: ~10 fold
- increase of affinity for JZTX-V vs WT Kv4.2 [5]: ~20 fold
- IC50 [6]: 0.0523 µM
- percentage of current inhibition kv4.1 [7]: 25% (5µM) O
